Common to all, as to format: in vivo
For data set [1], the system named is male rats. Put plainly: Penile erection of male rats after oral administration, observed for 2 h. The note with it: for ED50: Rattus norvegicus, 2 h, erectile response, ED50 values significantly different with a 95% confidence interval, read-out: Calculated ED50; for responding rats # / responding rats %: 10 rats tested, penile erection monitored during 2 h. The method, then: The purpose of this study was to compare the biological activity of compound 7a with that of sildenafil. In particular, the respective ED50-value (ED=effective dose), erection episodes and penile erection indices of said compounds in the treatment of male rats were determined. The penile erection index is an established means of determining the erection promoting properties of a substance (see e.g. Ang, H.H., Sim, M.K., Pharm. Sci., 3, 117-119 (1997) and references cited therein).
In these experiments, the compounds 7a and sildenafil were administered to male rats orally. The doses used for both drugs were 0.0781, 0.1562, 0.3125 and 0.625 mg/kg body weight. Sildenafil was dissolved in distilled water, whereas 7a was dissolved in 1% HCl solution (aq). Control animals were administered with the vehicles only, i.e. distilled water or the 1% HCl solution. During the experiments, the rats were placed in glass cages for observation and had access to food and water. During 2 h after administration of the investigated compounds, the penile erection of the rats was monitored.

The nature of data set [2]: Preliminary toxicity studies in rats. The following applies: rat, in vivo, read-out: tolerated dose without any detrimental effects. The method, then:
(§1) Moreover, according to preliminary toxicity studies in rats, the compound 7a is tolerated up to a dose of about […] body weight without any detrimental effects. […] Thus, high doses of 7a provide a particularly efficient means for treatment of erectile dysfunction.

Data set [3] deals with rats. Put plainly: Preliminary toxicity studies in rats. Here is the method:
as §1

One may read the ED50 as the midpoint of the dose-response relation. For the compound `CCCc1nn(C)c2c(=O)[nH]c(-c3cc(S(=O)(=O)N4CCN(C)CC4)ccc3OCC)nc12` [Sildenafil, sildenafil, reference compound], the ED50 in data set [1] (male rats) is 0.284 mg/kg. The “responding rats #” value in data set [1] (dose 0.0781 mg/kg) worked out at 3; in data set [1] (dose 0.1562 mg/kg), 3; in data set [1] (dose 0.3125 mg/kg), 5; in data set [1] (dose 0.6250 mg/kg) it was 7. Further, the responding rats % in data set [1] (dose 0.0781 mg/kg) is given as 30%; in data set [1] (dose 0.1562 mg/kg), 30%; in data set [1] (dose 0.3125 mg/kg), 50%; in data set [1] (dose 0.6250 mg/kg), 70%.
Take `CCCc1nn(C)c2c(=O)[nH]c(-c3cc(S(=O)(=O)N4CCN(C)CC4)cc4c3OCC4)nc12` [Compound 7a, 5-[2,3-dihydro-5-(4-methylpiperazin-1-ylsulfonyl)-7-benzofuryl]-1-methyl-3-propyl-6,7-dihydro-1H-pyrazolo[4,3-d]pyrimidin-7-one]: in data set [1] (male rats), the ED50 is 0.247 mg/kg. Further, the “responding rats #” value was found to be 3 in data set [1] (dose 0.0781 mg/kg), 4 in data set [1] (dose 0.1562 mg/kg), 4 in data set [1] (dose 0.3125 mg/kg) and 8 in data set [1] (dose 0.6250 mg/kg). Besides, the responding rats % in data set [1] (dose 0.0781 mg/kg) was 30%; in data set [1] (dose 0.1562 mg/kg), 40%; in data set [1] (dose 0.3125 mg/kg), 40%; in data set [1] (dose 0.6250 mg/kg), 80%. Also, in data set [1] (male rats, 0.0781-0.625 mg/kg, comparison with sildenafil (Fig. 1)), the “total number of observed erection episodes” value is on record as “superior to sildenafil, especially at higher doses”. Also, the “calculated penile erection indices” value in data set [1] (male rats, 0.0781-0.625 mg/kg, comparison with sildenafil (Fig. 2)) is “superior to sildenafil, especially at higher doses”. Moreover, in data set [2], the NOAEL was ~0.35 mg/kg. The toxicity and side-effects entry in data set [3] is “completely nontoxic and free from undesirable side-effects”.

Values taken from EP1057829A1, “Novel compounds and pharmaceutical compositions containing the same” (The Jordanian Pharmaceutical Manufacturing and Medical …, priority 1999, dated 2000).
